Test results taken from US8742158B2, “Protease inhibitors” (TaiMed Biologics, Inc., priority 2006, dated 2014).
Read-outs that look alike come from different tables or passages of the source.

Tests used:
HIV-1 Protease = HIV-1 Protease (Human immunodeficiency virus type 1 group M subtype B (isolate HXB2) (HIV-1), UniProt P04585); assay: Enzymatic (FRET fluorometric) assay for determining the inhibition constant (Ki) of compounds targeting the HIV protease; assay type: biochemical; details: for IC50: read-out: IC50 ENZYME HIV-1 Protease
Description: Enzymatic Assay for Determining the Inhibition Constant (Ki) of Synthetic Compounds Targeting the HIV Protease
This is a fluorometric assay based on the cleavage by protease of a substrate carrying a donor group (EDANS) and an acceptor group (DABCYL) on each side of the cleavage site, interacting together through fluorescence resonance energy transfer (FRET) as described by Matayoshi et al. (Science 247:[…], 1990).
After calculation of Vo and Vi, the inhibition constant (Ki) of the compound is determined using the equation of Henderson:
where Vo=the enzyme's initial velocity
Vi=the enzyme velocity in the presence of the inhibitory compound,
[I]=inhibitor concentration, [S]=substrate concentration,
Km=Michaelis-Menten constant and Kiapp=apparent Ki
Graphs are traced and the Ki determined using GraphPad Prism software v. 3.0.

HIV-1 viral strain NL4-3 = assay: Anti-viral assay in vitro (MTT, infected MT-4 cells, six days); assay type: cell-based; details: Human immunodeficiency virus 1, NL43, MT4, 144 h, read-out: ANTI-HIV-EC50 VIRAL STRAIN NL4-3
Procedure: Anti-Viral and Cytotoxicity Assays In Vitro
• To evaluate the EC50 of our compounds, various drug concentrations are incubated with the infected cell for six days and then the metabolic activity of the cells is monitored by the MTT assay. (See A. J. Japour et al., Antimicrobial Agents and Chemotherapy, 37, 1095-1101, 1993 and R. Pauwels et al. Journal of Virological Methods, 20, 309-321, 1988) • We use the laboratory viral strain NL4.3 as wild type virus and the cell line used is MT-4 which is a T-cell line highly sensitive to HIV-1. We also use some WT clinical strains. To address the resistance issue we assay the inhibitors with NL4.3 mutants which are designed to be resistant to specific commercially available inhibitors. • The same MTT assay is used to evaluate the CCIC50 (cell culture of IC50) of our compounds except that the virus is omitted.

[1] = calculated Ki, read-out: KI-CALC ENZYME HIV-1 Protease
[2] = KIGRAPHIC ENZYME HIV-1 Protease, Ki determined graphically, read-out: […] ENZYME HIV-1 Protease

SMILES	Ki (HIV-1 Protease; [1]) [nM]	IC50 (HIV-1 Protease) [nM]	EC50 (HIV-1 viral strain NL4-3) [nM]	Ki (HIV-1 Protease; [2]) [nM]
CC(C)CN([C@H](CO)CCCCNC(=O)[C@H](Cc1ccccc1Cl)NC(=O)c1ccncc1)S(=O)(=O)c1ccc(N)cc1 [EX 29]	< 3.8	3.81	144	–
Cc1ncccc1C(=O)N[C@@H](Cc1ccccc1Cl)C(=O)NCCCC[C@@H](CO)N(CC(C)C)S(=O)(=O)c1ccc(N)cc1 [EX 30]	< 3.8	2.15	422	–
CC(C)CN([C@H](CO)CCCCNC(=O)[C@H](CC1=C(Br)CCC=C1)NC(=O)N1CCOCC1)S(=O)(=O)c1ccc2c(c1)OCCO2 [EX 31]	< 3.8	3.66	980	–
CC(C)CN([C@H](CO)CCCCNC(=O)[C@@H](NC(=O)N1CCOCC1)C(c1ccccc1)c1ccccc1)S(=O)(=O)c1ccc2c(c1)CCO2 [EX 34]	< 3.8	0.963	1000	0.821
COC(=O)N[C@H](C(=O)NCCCC[C@H](CO)N(CC(C)C)S(=O)(=O)c1ccc2c(c1)N(C)CCO2)C(c1ccccc1)c1ccccc1 [EX 35]	< 3.8	3.01	> 50000	–
Cc1cccnc1C(=O)N[C@@H](Cc1ccccc1Br)C(=O)NCCCC[C@@H](CO)N(CC(C)C)S(=O)(=O)c1ccc(N)cc1 [EX 36]	< 3.8	0.503	204	0.267
Cc1ccc(C(=O)N[C@@H](Cc2ccccc2Br)C(=O)NCCCC[C@@H](CO)N(CC(C)C)S(=O)(=O)c2ccc(N)cc2)cc1O [EX 37]	< 3.8	0.683	60	0.224
CC(C)CN([C@H](CO)CCCCNC(=O)[C@H](Cc1ccccc1Br)NC(=O)OCc1ccncc1)S(=O)(=O)c1ccc(N)cc1 [EX 38]	–	0.92	248	0.27
Cc1nn(C)c(Cl)c1S(=O)(=O)N[C@@H](Cc1ccc2ccccc2c1)C(=O)NCCCC[C@@H](CO)N(CC(C)C)S(=O)(=O)c1ccc(N)cc1 [EX 51]	26.2	–	–	–
CC(C)CN([C@H](CO)CCCCNC(=O)[C@H](Cc1ccc2ccccc2c1)NS(=O)(=O)c1ccc(C#N)cc1)S(=O)(=O)c1ccc(N)cc1 [EX 53]	37.4	–	–	–
CC(C)CN([C@H](CO)CCCCNC(=O)[C@H](Cc1ccc2ccccc2c1)NS(=O)(=O)c1cn(C)cn1)S(=O)(=O)c1ccc(N)cc1 [EX 54]	11.4	–	–	–
CC(C)CN([C@H](CO)CCCCNC(=O)[C@H](Cc1ccc2ccccc2c1)NCc1ccccn1)S(=O)(=O)c1ccc(N)cc1 [EX 56]	–	5.9	> 50000	–
CC(C)CN([C@H](CO)CCCCNC(=O)[C@@H](NS(=O)(=O)c1cccs1)C(c1ccccc1)c1ccccc1)S(=O)(=O)c1ccc(N)cc1 [EX 57]	< 3.8	0.601	64	0.541
CC(C)CN([C@H](CO)CCCCNC(=O)[C@@H](NC(=O)NCc1ccncc1)C(c1ccccc1)c1ccccc1)S(=O)(=O)c1ccc(N)cc1 [EX 62]	< 3.8	0.51	170	0.443
Cc1ccc(C(=O)N[C@@H](Cc2ccccc2C)C(=O)NCCCC[C@@H](CO)N(CC(C)C)S(=O)(=O)c2ccc(N)cc2)cc1O [EX 63]	< 3.8	0.938	165	–
COC(=O)N[C@@H](Cc1ccccc1Br)C(=O)NCCCC[C@@H](COP(=O)(O)O)N(CC(C)C)S(=O)(=O)c1ccc(N)cc1 [EX. 1, (1S,5S)-[1-{5-[(4-amino-benzenesulfonyl)-isobutyl-amino]-6-phosphonooxy-hexylcarbamoyl}-2-(2-bromo-phenyl)-ethyl]-carbamic acid methyl ester]	> 300	–	–	–
Cc1ncccc1C(=O)N[C@@H](Cc1ccccc1Br)C(=O)NCCCC[C@@H](COP(=O)(O)O)N(CC(C)C)S(=O)(=O)c1ccc(N)cc1 [EX. 2, (2S,2S) phosphoric acid mono-(2-[(4-aminobenzenesulfonyl)-isobutyl-amino]-6-{3-(2-bromo-phenyl)-2-[(2-methyl-pyridine-3-carbonyl)-amino]-propionylamino}-hexyl)ester]	> 300	–	–	–
CC(=O)N[C@H](C(=O)NCCCCC(C(N)=O)N(CC(C)C)S(=O)(=O)c1ccc(N)cc1)C(c1ccccc1)c1ccccc1 (stereo partly drawn) [EX. 8]	–	–	238	–
CC(=O)N[C@H](C(=O)NCCCC[C@@H](C(N)=O)N(CC(C)C)S(=O)(=O)c1ccc(N)cc1)C(c1ccccc1)c1ccccc1 [EX. 8]	< 3.8	1.07	–	–
